Results published in EP1350523B1 (priority 1992, dated 1994).

Tested on: vascular smooth muscle cells
Experiment: 24 hour 3H-thymidine DNA synthesis inhibition assay compared with 24 hour 3H-leucine protein inhibition assay
Type: cell-based
Settings: for therapeutic range (area under the curve of 3H-leucine assay greater than that of 3H-thymidine assay): 24 hour exposure, 5% FBS; for protein synthesis inhibition and cytotoxicity at concentrations where significant DNA synthesis inhibition occurs: Example 8, Figs. 10A-10C
Method: The ability of various therapeutic agents to inhibit DNA synthesis and protein synthesis in vascular smooth muscle cells was tested. ^3H-leucine and ^3H-thymidine uptake and cytotoxicity assays were conducted in accordance with the following protocols.
3H-leucine uptake: Vascular smooth muscle cells at 40,000 cells/ml were seeded in sterile 24 well plates at 1ml/well. The plates were incubated overnight at 37°C, 5% CO2, 95% air in a humidified atmosphere (saturation). Log dilutions of the therapeutic agent of interest were incubated with the vascular smooth muscle cells for 5 minutes or 24 hours. Samples of the therapeutic agents were diluted in DMEM: F-12 media (Whittaker Bioproducts, Walkersville, Maryland) with 5% fetal bovine serum (GBS. Gibco) and 5% Serum Plus® (JRH Biologicals). Following therapeutic agent incubation, the solution was aspirated, and 1ml/well of 0.5 microcurie/ml ^3H-leucine in leucine free DMEM (Dulbecco's Modified Eagle's Medium) with 5% Serum Plus® was added. The plates were re-incubated overnight at 37°C, 5% CO2 in a humidified atmosphere. The cells were visually graded using an inverted microscope using a scoring scale to determine viability and cell number. The 1 to 3 grade is based upon percent of cell viability and number compared to control wells, with 3=100%, 2=70%-100% and 1=0%-70%. A record of this scoring assisted in determining the immediate cytotoxic effect of the therapeutic agents. The media was then aspirated, and the cells were washed twice with cold 5% TCA. 400 microliters of 0.2M NaOH was added per well, and the plates were incubated for two hours at room temperature on a rotating platform. 200 microliters per well of the cell solution was transferred into plastic scintillation vials (Bio-Rad Laboratories), and 4 milliliters of Bio-Safe® II liquid scintillation fluid was added prior to vortexing. Vials were counted on a Beckman LS2800 Liquid Scintillation Counter interfaced with Beckman "Data Capture" software for conversion to a Lotus 1-2-3® file and analysis using Lotus 1-2-3®.
^3H-thymidine uptake: Vascular smooth muscle cells were incubated in complete media with 5% FBS (Gibco) overnight at 37°C in a humidified, 5% CO2 environment in sterile 24 well plates. The media was aspirated from the wells and serum free media supplemented with growth factors (DMEM: F-12 basal media supplemented with growth factor cocktail catalog number I1884 which contains insulin (5 micrograms/ml), transferrin (5 micrograms/ml) and sodium selenite (5 nanograms/ml) available from Sigma Chemical, St. Louis, Missouri) was added. Cells were incubated in this media for 24 hours. For a 5 minute therapeutic agent exposure, log dilutions of the therapeutic agent were incubated with the cells in complete media. After 5 minutes and media aspiration, 1 ml/well of 1.0 microcurie/ml ^3H-thymidine dispersed in complete media was added. The 24 hour exposure involved incubation of the cells with 1 ml/well of 1.0 microcurie/ml of ^3H-thymidine dispersed in complete media and log dilutions of the therapeutic agent being tested. In both exposure trials, the cells were then incubated overnight at 37°C in a humidified, 5% CO2 environment. The cells were visually scored for viability and cell number. […] Vials were counted on a Beckman LS2800 Liquid Scintillation Counter interfaced with Beckman "Data Capture" software for conversion to a Lotus 1-2-3° file and analysis using Lotus 1-2-30®.

Structure (SMILES)	therapeutic range (area under the curve of 3H-leucine assay greater than that of 3H-thymidine assay)	protein synthesis inhibition and cytotoxicity at concentrations where significant DNA synthesis inhibition occurs
O=[N+]([O-])OCC(CO[N+](=O)[O-])O[N+](=O)[O-] [nitroglycerin]	showed an available therapeutic range	minimal protein synthesis inhibition and cytotoxicity
CN[C@@H]1C[C@H]2O[C@@](C)([C@@H]1OC)n1c3ccccc3c3c4c(c5c6ccccc6n2c5c31)C(=O)NC4 [staurosporin]	showed an available therapeutic range	–
Cc1ccc(C(=O)Nc2ccc(S(=O)(=O)O)c3cc(S(=O)(=O)O)cc(S(=O)(=O)O)c23)cc1NC(=O)c1cccc(NC(=O)Nc2cccc(C(=O)Nc3cc(C(=O)Nc4ccc(S(=O)(=O)O)c5cc(S(=O)(=O)O)cc(S(=O)(=O)O)c45)ccc3C)c2)c1 [suramin]	showed an available therapeutic range	minimal protein synthesis inhibition and cytotoxicity
